In the OPERA property sets (Mansouri et al. 2018):

Conditions: for log10 BCF / log10 biotransformation half-life (days): fish

| Structure (SMILES) | boiling point [°C] | melting point [°C] | log10 vapour pressure (mmHg) | further results |
| --- | --- | --- | --- | --- |
| Brc1ccc(-c2ccc(Br)cc2)cc1 | 358 | 164 | – | ready biodegradability: not readily biodegradable; log10 BCF: 3.92; log10 biotransformation half-life (days): 1.57 |
| CCCCCCNC(=O)n1cc(F)c(=O)[nH]c1=O | – | 110 | – | – |
| C=CCCCCCCCCCCCCCCCCCCCC | 367 | 38 | – | – |
| Cc1cc2ccccc2cn1 | 249 | 68 | – | – |
| CC(C)c1ccccc1C(C)C | 204 | -57 | -0.441 | ready biodegradability: not readily biodegradable; log10 BCF: 2.14 |
| COc1ccc(F)cc1 | 157 | -45 | – | – |
| Cc1cc(C)c(C(C)C)cc1C | 221 | 21 | – | – |
| Clc1ccc(-c2c(Cl)c(Cl)c(Cl)c(Cl)c2Cl)c(Cl)c1Cl | – | – | – | log10 Henry constant (atm·m³/mol): -4.96; log10 biotransformation half-life (days): 2.54 |
| C=CCC(C)(C)C | 72.5 | -137 | – | – |
| c1ccc(-c2ncc[nH]2)cc1 | 340 | 149 | – | – |
| CCOC(=O)N(c1ccccc1)c1ccccc1 | 360 | 72 | – | – |
| C=C1CCC(C)CC1 | 122 | – | – | – |
| CNc1nc(NC(C)C)nc(SC)n1 | 345 | 85 | -6 | – |
| CN(C)C | 2.87 | – | 3.21 | log10 Henry constant (atm·m³/mol): -3.98; ready biodegradability: readily biodegradable |
| Cc1cccc(N(C)C(=S)Oc2ccc3ccccc3c2)c1 | – | 111 | – | – |
| CNC.O=C(O)COc1ccc(Cl)cc1Cl | – | 86 | -9 | – |
| Ic1cccc(I)c1 | 285 | 40.4 | – | – |
| NS(=O)(=O)c1cc2c(cc1Cl)NC(CSCC(F)(F)F)NS2(=O)=O (centres undefined) | – | 206 | – | – |
| CC1CCCC1=O (centres undefined) | 140 | -75 | – | – |
| O=C(O)c1cc(O)c(O)c(=O)c(O)c1 | – | 317 | – | – |
| CC(=O)[C@@]1(C)CC[C@H]2[C@@H]3C=C(C)C4=CC(=O)CC[C@]4(C)[C@H]3CC[C@@]21C | – | 144 | – | – |
| C=C(C)CCCCCCC | – | – | – | log10 biotransformation half-life (days): -0.06 |
| CC(Cl)Br (centres undefined) | 83 | – | 1.93 | – |

| Structure (SMILES) | boiling point [°C] | melting point [°C] | log10 vapour pressure (mmHg) | further results |
| --- | --- | --- | --- | --- |
| CCCCCC(O)CCCCC | 228 | 25 | – | – |
| CC(C)CCOC=O | 124 | -93.5 | 1.18 | log10 Henry constant (atm·m³/mol): -3.17 |
| C=CCOC(=O)OCC=C | 142 | – | -0.991 | – |
| c1ccc2cc(-c3ccc4ccccc4c3)ccc2c1 | 452 | 188 | – | – |
| CON(C)C(=O)Nc1ccc(Cl)c(Cl)c1 | – | 93 | -5.84 | log10 Koc (L/kg): 2.7; ready biodegradability: not readily biodegradable; log10 BCF: 1.25; log10 biotransformation half-life (days): -0.97 |
| C1CCC(CCCCC2CCCCC2)CC1 | 305 | 12 | – | – |
| CCCCOC(=O)CC(=O)OCCCC | 252 | -83 | – | – |
| Cc1cccc(N)c1C | 222 | – | -1.12 | ready biodegradability: not readily biodegradable |
| CNC(=O)ON=C(C)SC | – | 78 | -5.27 | log10 Koc (L/kg): 1.3 |
| C1=CCC2CC=CC2C1 (centres undefined) | – | – | – | ready biodegradability: not readily biodegradable |
| O=C(O)C1CC=CCC1C(=O)O (centres undefined) | – | – | – | ready biodegradability: not readily biodegradable; log10 BCF: 0.3; log10 biotransformation half-life (days): -0.57 |
| CNC(=O)n1cc(F)c(=O)[nH]c1=O | – | 226 | – | – |
| CCOCCO | 135 | -70 | 0.725 | log10 Henry constant (atm·m³/mol): -6.33; ready biodegradability: readily biodegradable |
| CCC(=O)OC(C)C | 110 | – | 1.35 | – |
| CC(C)(C)c1ccc(C(=O)O)cc1 | – | 164 | – | ready biodegradability: not readily biodegradable; log10 BCF: 0.66 |
| CCCOC | 39.1 | – | 2.67 | – |
| CNC(=O)Oc1cccc(N=CN(C)C)c1.Cl | – | – | -7.92 | – |
| O=C(O)c1ccc(Sc2ccccc2)cc1 | – | – | – | ready biodegradability: readily biodegradable |
| CC(O)[C@H]1CC[C@H]2[C@@H]3CC[C@@H]4C[C@@H](O)CC[C@]4(C)[C@H]3CC[C@]12C (some centres undefined) | – | 244 | – | – |
| CCCCC(=O)Cl | 109 | -110 | – | – |
| CCCCCOC(=O)Nc1ccccc1 | – | – | – | log10 Koc (L/kg): 2.61 |
| CCOC(=O)C(Br)C(=O)OCC | – | -54 | – | – |
| O=C(CBr)c1ccc(Br)cc1 | – | 111 | – | – |
